Legend:
Sprague-Dawley rats = assay: Blood pressure change in Sprague-Dawley rats (Example 4); type: in vivo, rat; details: conscious male Sprague-Dawley rats, PO, 10 mg/kg
Protocol: Male rats (250-350 g body weight, supplied by Harlan Laboratories) were anesthetized with ketamine/xylazine and a heparinized saline fluid filled catheter implanted into the right femoral artery. The catheter was exteriorized between the scapula, capped, and the animal allowed to recover for at least 7 days post surgery prior to any compound testing. Prior to testing animals were maintained on normal diet, with free access to drinking water, under a 12 hour light-dark cycle.
On the day of experimentation, under inhaled isoflurane anesthesia, the catheter was uncapped and connected to a tether (Instech Labs) and pressure transducer (Harvard Apparatus). Blood pressure and heart rate were subsequently captured and analyzed with a dedicated data capture system (PowerLab, ADInstruments). Data sampling rates were set at 1 cycle per second. Once connected, each rat was allowed to recover from anesthesia and baseline blood pressure and heart rate levels were established in these conscious, freely-moving animals. Once baseline was established either vehicle (0.5% methylcellulose or 100% PEG400) or test article was administered orally (PO, 10 mg/kg) and the effects on blood pressure and heart rate monitored for up to 24 hours.
Data are reported as hourly averages and changes in blood pressure are calculated from subtracting individual baseline on an hourly basis.

[1] = molecular target: T1, soluble guanylate cyclase (sGC) (Homo sapiens (Human), UniProt Q02108+Q02153); assay: sGC-HEK-cGMP assay with SNP incubation, LC/MS detection (Example 2A); type: cell-based; details: HEK293 cells, 10 μM SNP, LC/MS detection; for Emax: 100% = BAY 41-2272 at 10 μM, read-out: HEK assay Emax - unconstrained (%); for EC50: top of curve not fitted to 100%, read-out: HEK assay EC50 - unconstrained
T1 sequence (Q02153 whole entry): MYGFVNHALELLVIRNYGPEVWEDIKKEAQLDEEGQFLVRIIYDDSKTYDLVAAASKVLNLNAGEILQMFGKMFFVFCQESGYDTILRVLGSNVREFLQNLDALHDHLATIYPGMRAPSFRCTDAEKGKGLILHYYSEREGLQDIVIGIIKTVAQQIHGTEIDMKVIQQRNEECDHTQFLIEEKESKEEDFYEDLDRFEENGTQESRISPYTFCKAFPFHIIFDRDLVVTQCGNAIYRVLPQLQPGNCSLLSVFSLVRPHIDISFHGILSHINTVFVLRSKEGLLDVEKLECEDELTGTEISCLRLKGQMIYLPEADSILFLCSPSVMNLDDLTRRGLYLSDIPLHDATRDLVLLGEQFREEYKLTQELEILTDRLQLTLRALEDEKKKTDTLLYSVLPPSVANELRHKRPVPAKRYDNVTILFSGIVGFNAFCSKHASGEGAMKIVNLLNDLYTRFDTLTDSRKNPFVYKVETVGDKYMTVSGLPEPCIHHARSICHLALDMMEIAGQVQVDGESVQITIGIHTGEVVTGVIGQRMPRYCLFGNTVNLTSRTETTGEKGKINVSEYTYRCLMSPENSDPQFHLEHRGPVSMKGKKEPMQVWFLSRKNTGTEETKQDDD
T1 sequence (Q02108 whole entry): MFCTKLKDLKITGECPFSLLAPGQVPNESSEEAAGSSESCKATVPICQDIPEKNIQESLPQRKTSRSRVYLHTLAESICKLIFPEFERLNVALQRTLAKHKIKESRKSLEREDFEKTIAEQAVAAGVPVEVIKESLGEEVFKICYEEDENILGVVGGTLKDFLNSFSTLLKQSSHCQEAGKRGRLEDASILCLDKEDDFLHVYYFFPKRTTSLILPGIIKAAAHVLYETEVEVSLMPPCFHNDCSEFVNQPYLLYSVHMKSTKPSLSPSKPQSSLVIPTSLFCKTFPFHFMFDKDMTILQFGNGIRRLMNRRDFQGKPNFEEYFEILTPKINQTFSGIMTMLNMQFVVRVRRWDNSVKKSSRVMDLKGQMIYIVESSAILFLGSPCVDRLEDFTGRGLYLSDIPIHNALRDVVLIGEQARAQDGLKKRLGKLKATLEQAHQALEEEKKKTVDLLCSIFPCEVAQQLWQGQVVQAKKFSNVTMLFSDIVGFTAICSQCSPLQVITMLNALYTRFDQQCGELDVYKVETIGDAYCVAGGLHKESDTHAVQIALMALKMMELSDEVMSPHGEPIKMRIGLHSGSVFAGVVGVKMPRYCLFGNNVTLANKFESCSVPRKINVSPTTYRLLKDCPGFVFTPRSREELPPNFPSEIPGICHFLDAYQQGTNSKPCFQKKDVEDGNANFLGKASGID
Method in brief: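 HEK293 cells with endogenous sGC were pretreated 15 min at 37 °C with 0.5 mM IBMX, then exposed 10 min at 37 °C to compound (added from 0.0001–30 μM solutions) plus SNP (from 10 μM solution). After 0.1 M HCl lysis, cGMP was quantified by LC/MS against a standard curve.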

[2] = molecular target: T1, soluble guanylate cyclase (sGC); assay: sGC-HEK-cGMP assay, new protocol with DETA-NONOate, LC/MS detection (Example 2C); type: cell-based; details: read-out: Absolute EC50 (uM) - binned

| SMILES | Rat Mean Arterial Pressure peak change from baseline at 10 mpk (Sprague-Dawley rats) | Emax [1] [%] | EC50 [1] [nM] | EC50 [2] [µM] |
| --- | --- | --- | --- | --- |
| C[C@H]1CCCN(c2nc(-c3cc(-c4ccon4)n(Cc4ccccc4F)n3)ncc2F)[C@H]1C(=O)O (racemic) [Compound I-161] | B (B = −20 ≤ peak change from baseline at 10 mpk ≤ −10) |  |  |  |
| O=C(O)[C@H]1c2ccccc2CCN1c1nc(-c2cc(-c3ccon3)n(Cc3ccccc3F)n2)ncc1F [Compound I-121] | A (A = −10 < peak change from baseline at 10 mpk < 0) | 60 to 80 | 100 to 500 |  |
| CC1(C(=O)O)CCN(c2nc(-c3cc(-c4ccon4)n(Cc4ccccc4F)n3)ncc2F)CC1 [Compound I-124] | B (B = −20 ≤ peak change from baseline at 10 mpk ≤ −10) | 60 to 80 | 1 to 100 |  |
| CN(c1nc(-c2cc(-c3ccon3)n(Cc3ccccc3F)n2)ncc1F)C(C(=O)O)c1ccccc1 (centres unmarked) [Compound I-142] | A (A = −10 < peak change from baseline at 10 mpk < 0) | 80 to 100 | 1 to 100 |  |
| CC1(C(=O)O)CCN(c2nc(-c3cc(-c4ccon4)n(Cc4ccccc4F)n3)ncc2F)C1 (centres unmarked) [Compound I-143] | B (B = −20 ≤ peak change from baseline at 10 mpk ≤ −10) | 80 to 100 | 100 to 500 |  |
| O=C(O)C1(C(F)(F)F)CCN(c2nc(-c3cc(-c4ccon4)n(Cc4ccccc4F)n3)ncc2F)C1 (centres unmarked) [Compound I-185] | A (A = −10 < peak change from baseline at 10 mpk < 0) | 100 to 120 | 1000 to 5000 |  |
| OC[C@@H](O)CNc1nc(-c2cc(-c3ccon3)n(Cc3ccccc3F)n2)ncc1F [Compound I-313] | C (C = peak change from baseline at 10 mpk < −20) |  |  | < 0.1 |
| C[C@H]1CCCN(c2nc(-c3cc(-c4ccon4)n(Cc4ccccc4F)n3)ncc2F)[C@H]1C(=O)O [Compound I-329] | B (B = −20 ≤ peak change from baseline at 10 mpk ≤ −10) |  |  |  |
| C[C@@H]1CCCN(c2nc(-c3cc(-c4ccon4)n(Cc4ccccc4F)n3)ncc2F)[C@@H]1C(=O)O [Compound I-330] | C (C = peak change from baseline at 10 mpk < −20) |  |  |  |
| CN(CCS(=O)(=O)O)c1nc(-c2cc(-c3ccon3)n(Cc3ccccc3F)n2)ncc1F [Compound I-368] |  | 20 to 40 | 100 to 500 | > 1 |
| O=C(O)[C@@H]1CCc2ccccc2[C@@H]1Nc1nc(-c2cc(-c3ccon3)n(Cc3ccccc3F)n2)ncc1F [Compound I-369] |  | 60 to 80 | 1 to 100 | < 0.1 |
| O=C(O)[C@@H]1Cc2ccccc2[C@@H]1Nc1nc(-c2cc(-c3ccon3)n(Cc3ccccc3F)n2)ncc1F [Compound I-371] |  | 10 to 20 | > 10000 | < 0.1 |
| CCOC(=O)c1csc(CN(C)c2nc(-c3cc(-c4ccon4)n(Cc4ccccc4F)n3)ncc2F)n1 [Compound I-372] |  | 60 to 80 | 100 to 500 | 0.101 to 1 |
| CN(CCS(N)(=O)=O)c1nc(-c2cc(-c3ccon3)n(Cc3ccccc3F)n2)ncc1F [Compound I-374] |  | 100 to 120 | 100 to 500 | < 0.1 |
| CN(Cc1nc(C(=O)O)co1)c1nc(-c2cc(-c3ccon3)n(Cc3ccccc3F)n2)ncc1F [Compound I-375] |  | 100 to 120 | 100 to 500 | > 1 |
| CN(Cc1nc(C(=O)O)cn1C)c1nc(-c2cc(-c3ccon3)n(Cc3ccccc3F)n2)ncc1F [Compound I-376] |  | 100 to 120 | 5000 to 10000 | > 1 |
| O=C(O)[C@H]1[C@@H](C(F)(F)F)CCCN1c1nc(-c2cc(-c3ccon3)n(Cc3ccccc3F)n2)ncc1F [Compound I-454] |  | 20 to 40 | > 10000 | < 0.1 |
| CC[C@H]1CCCN(c2nc(-c3cc(-c4ccon4)n(Cc4ccccc4F)n3)ncc2F)[C@H]1C(=O)O [Compound I-455] |  | 80 to 100 | 1 to 100 | < 0.1 |

Source: US10183021B2, “sGC stimulators” (Ironwood Pharmaceuticals, Inc., priority 2013, dated 2019)
